# Measurements as given in patent US8785374B2, “Inhibitors of mammalian tight junction opening” (Alba Therapeutics Corporation, priority 2007, dated 2014).
# Non-standard residues stand in square brackets, D forms with d. No end group written: not given here. pGlu = O=C1CC[C@@H](C(=O)O)N1
# Experiments:
# [1] = tested on: CaCo2 monolayers (tight junctions); assay: Inhibition of agonist-induced Lucifer Yellow flux through CaCo2 monolayers; conditions: for Reduced LY Permeability: inhibition of the increase in Lucifer Yellow permeability induced by SEQ ID NO:70 (FCIGRL), CaCo2 monolayers
# Excerpt: (§1) Measurement of the Inhibition of the Decrease in Trans Epithelial Electric Resistance (TEER) and Epithelial Flux of a Fluorescent Marker Lucifer Yellow
# (§2) Antagonists of tight junctions can be identified by their ability to prevent or decrease the enhancement of the flux of compounds (e.g. Lucifer Yellow) through the monolayer induced by agonists of tight junctions (e.g., SEQ ID NO: 70). Antagonists of tight junctions can also be identified by their ability to prevent the decrease in TEER induced by agonists of tight junctions (e.g., SEQ ID NO: 70).
# (§3) Tight junction antagonists can be identified using the following method:
# (§4) Prepare Modified Hank's Balanced Salt Solution (MHBSS) by obtaining IL bottle of HBSS removing 10 ml of HBSS and replacing it with 10 ml HEPES buffer pH 7.0. Adjust pH to 7.4±0.1 using concentrated NaOH (10N).
# (§5) Remove Caco-2 cells from incubator, grown on 12-well, […], polycarbonate Transwell® filters (Corning) and record passage number, date cells seeded and age in days.
# (§6) Aspirate cell culture medium from both the apical (AP) and basolateral (BL) compartments, replacing with 0.5 ml and 1.5 ml of MHBSS, respectively. Incubate cells at 37° C. for 30 minutes.
# (§7) Prepare a stock solution of the Antagonist Pretreatment Solution by dissolving the appropriate amount of antagonist in MHBSS. Vortex or sonicate the solution until it is clear then adjust pH to 7.4±0.1 using 1N NaOH. Preincubate each filter for 30 min with these solutions at 37° C. and 50 RPM.
# (§8) Prepare stock solutions of Antagonist Treatment Solution by dissolving appropriate amounts of antagonist and agonist (for example, a peptide agonist such as a peptide having the sequence FCIGRL (SEQ ID NO: 70)) in 7.5 mM Lucifer Yellow solution in MHBSS. Vortex or sonicate the solution until it is clear then adjust pH to 7.4±0.1 using 1N NaOH.
# (§9) Aspirate Antagonist Pretreatment Solution from the apical compartment of each filter (n=3 per condition) and replace with 0.5 ml of control and test solutions.
# (§10) Place all plates into incubator set at 37° C. (±0.2), 50 RPM (±5) for a total of 180 minutes.
# At t=60, 120 and 180 minutes remove 100 μl from each basolateral compartment and place it in a 96-well plate for Lucifer Yellow analysis, replace with 100 μl of HBSS.
# Make a Lucifer Yellow standard curve with the following dilutions (7500 μM, 3750 μM, 750 μM, 375 μM, 75 μM, 37.5 μM, 7.5 μM, 3.75 μM, 0.75 μM) and pipette 100 μL of each into a 96-well plate except for the first three standards mentioned above which require a 1:10 dilution prior to transferring to the 96-well plate.
# At t=0 make 1:10 dilutions of each starting Antagonist Treatment Solution mentioned above and pipette 100 μL of each into a 96-well plate.
# At t=180 make 1:10 dilutions of Antagonist Treatment Solution from the apical compartment of each filter and pipette 100 μL of each into the 96-well plate.
# Analyze each 96-well plate in a Tecan Spectra Fluor Plus using Magellan at 485 and 535 nm.
# (§11) Cells: Caco-2 cells passage 40-60 grown on Transwell® plates for 21-28 days
# (§12) SEQ ID NO: 70 is a 6-mer peptide tight junction agonist having the sequence FCIGRL. See US patent publication US 2005/0059593 A1. In the following tables + indicates attenuation of the effects of the tight junction agonist were observed and − indicates no attenuation of the effects of the tight junction agonist were observed.
# [2] = tested on: CaCo2 monolayers (tight junctions); assay: Inhibition of agonist-induced decrease in trans epithelial electric resistance (TEER) of CaCo2 monolayers; conditions: for Prevented TEER Reduction: inhibition of the reduction in TEER induced by SEQ ID NO:70 (FCIGRL), CaCo2 monolayers
# Excerpt: as §1, §2, §3, §4, §5, §6
# Using the MilliCell®-ERS instrument (Millipore), measure and record the transepithelial electrical resistance (TEER) across each filter and record.
# as §7, §8, §9, §10
# At t=30, 60, 120 and 180 minutes, measure and record the transepithelial electrical resistance (TEER) across each filter using the MilliCell-ERS instrument.
# as §11, §12
# [3] = agonist alone, compared to vehicle alone
Substance,Reduced LY Permeability [1],Prevented TEER Reduction [2],"Enhancement of Lucifer Yellow permeability through CaCo2 monolayers [1, 3]","Decrease of TEER in CaCo2 monolayers [2, 3]"
Phe-Pro-Gly (FPG; Tight junction antagonist) [SEQ ID NO: 21],+,+,,
Glp-His-Gly ([pGlu]-His-Gly) [SEQ ID NO: 45],−,−,,
Glp-Pro-Met ([pGlu]-Pro-Met) [SEQ ID NO: 68],−,+,,
Gln-Pro-Ala (QPA; Tight junction antagonist) [SEQ ID NO: 9],+,+,,
GVLVQPG [SEQ ID NO: 2],−,−,,
Leu-Pro-Gly (LPG; Tight junction antagonist) [SEQ ID NO: 25],+,+,,
Glp-Phe-Gly ([pGlu]-Phe-Gly) [SEQ ID NO: 40],−,−,,
"FCIGRL [FCIGRL, reference compound]",,,51 fold,16 fold
Glp-Asn-Gly ([pGlu]-Asn-Gly) [SEQ ID NO: 46],−,−,,
Lys-Pro-Gly (KPG; Tight junction antagonist) [SEQ ID NO: 24],+,+,,
Gly-Pro-Gln (GPQ; Tight junction antagonist) [SEQ ID NO: 13],+,+,,
Glp-Gly-Gly ([pGlu]-Gly-Gly) [SEQ ID NO: 48],−,−,,
Glp-Pro-Leu ([pGlu]-Pro-Leu) [SEQ ID NO: 61],−,−,,
Met-Pro-Gly (MPG; Tight junction antagonist) [SEQ ID NO: 26],+,+,,
Glp-Pro-Glu ([pGlu]-Pro-Glu) [SEQ ID NO: 65],−,−,,
Glp-Met-Gly ([pGlu]-Met-Gly) [SEQ ID NO: 51],−,−,,
Gly-(d)Pro-(d)Gln (Gly-[dP]-[dQ]) [SEQ ID NO: 16],−,−,,
Glp-Thr-Gly ([pGlu]-Thr-Gly) [SEQ ID NO: 42],−,−,,
Gln-Pro-Gly (QPG; Tight junction antagonist) [SEQ ID NO: 6],+,+,,
Glp-Pro-Phe ([pGlu]-Pro-Phe) [SEQ ID NO: 66],−,−,,
Val-Pro-Gly (VPG; Tight junction antagonist) [SEQ ID NO: 34],+,−,,
Arg-Pro-Gly (RPG; Tight junction antagonist) [SEQ ID NO: 20],+,+,,

Substance,Reduced LY Permeability [1],Prevented TEER Reduction [2],"Enhancement of Lucifer Yellow permeability through CaCo2 monolayers [1, 3]","Decrease of TEER in CaCo2 monolayers [2, 3]"
Asp-Pro-Gly (DPG; Tight junction antagonist) [SEQ ID NO: 19],−,−,,
Glp-Pro-Arg ([pGlu]-Pro-Arg) [SEQ ID NO: 62],−,−,,
Glp-Pro-Trp ([pGlu]-Pro-Trp) [SEQ ID NO: 58],−,−,,
Glp-Trp-Gly ([pGlu]-Trp-Gly) [SEQ ID NO: 49],−,−,,
Ser-Pro-Gly (SPG; Tight junction antagonist) [SEQ ID NO: 28],+,+,,
Glu-Pro-Gly (EPG; Tight junction antagonist) [SEQ ID NO: 23],+,+,,
Ala-Pro-Gly (APG; Tight junction antagonist) [SEQ ID NO: 7],+,+,,
Glp-Arg-Gly ([pGlu]-Arg-Gly) [SEQ ID NO: 47],−,−,,
Glp-Tyr-Gly ([pGlu]-Tyr-Gly) [SEQ ID NO: 44],−,−,,
Glp-Pro-Ser ([pGlu]-Pro-Ser) [SEQ ID NO: 56],−,−,,
Leu-Val-Gln-Pro-Gly (LVQPG; Tight junction antagonist) [SEQ ID NO: 4],+,+,,
Glp-Pro-His ([pGlu]-Pro-His) [SEQ ID NO: 60],−,−,,
(d)Gln-(d)Pro-Gly ([dQ]-[dP]-Gly) [SEQ ID NO: 12],−,−,,
Glp-Pro-Gly ([pGlu]-Pro-Gly) [SEQ ID NO: 35],+,+,,
Val-Gln-Pro-Gly (VQPG; Tight junction antagonist) [SEQ ID NO: 5],+,+,,
Glp-Ile-Gly ([pGlu]-Ile-Gly) [SEQ ID NO: 43],−,−,,
Glp-Pro-Val ([pGlu]-Pro-Val) [SEQ ID NO: 63],−,−,,
Ala-Pro-Gly (APG; Tight junction antagonist) [SEQ ID NO: 17],+,+,,
Gln-(d)Pro-Gly (Gln-[dP]-Gly) [SEQ ID NO: 11],+,+,,
His-Pro-Gly (HPG; Tight junction antagonist) [SEQ ID NO: 18],+,+,,
Glp-Glu-Gly ([pGlu]-Glu-Gly) [SEQ ID NO: 41],−,−,,
